Eight compounds from PubChem BioAssay (NCI) can be followed below.

Among the test systems are OVCAR-5 ovarian; SF-539 CNS; HCT-15 colon; HCC-2998 colon; DU-145 prostate; SK-MEL-28 melanoma; U251 CNS; SF-295 CNS; RPMI-8226 leukemia; MDA-MB-435.
Assay in all cases: NCI-60 cell line screen, 48 h

Molecules are shown by their SMILES. Values joined by “and” are separate entries in the source; they are usually repeats but may differ in a detail not shown here. Identical values can stand only once.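 In this assay, cells in 96-well plates receive the compound at five concentrations for 48 hours. Endpoints are linearly interpolated between the surrounding concentrations. GI50 is the concentration that inhibits growth by half. TGI: total growth inhibition.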

For the compound `CC1(C)N=C(N)N=C(N)N1c1ccc(OCC(=O)N2CCOCC2)c(Cl)c1`, the GI50 in the experiment on OVCAR-5 ovarian was 84.4 µM; in the experiment with SF-539 CNS, 5.32 µM; in the experiment with HCT-15 colon, more than 100 µM; in the experiment with HCC-2998 colon, 9.78 µM; in the experiment with DU-145 prostate, 0.994 µM; in the experiment with SK-MEL-28 melanoma, 30.1 µM. Besides, the GI50 with U251 CNS was 1.16 µM; in the experiment with SF-295 CNS, 0.561 µM; in the experiment with RPMI-8226 leukemia, 9.04 µM; with MDA-MB-435, 0.565 µM. Moreover, the TGI with OVCAR-5 ovarian, with SF-539 CNS, in the experiment with HCT-15 colon, in the experiment with HCC-2998 colon, in the experiment with DU-145 prostate and in the experiment on SK-MEL-28 melanoma was more than 100 µM each time. Moreover, the TGI in the experiment on U251 CNS, with SF-295 CNS, in the experiment on RPMI-8226 leukemia and with MDA-MB-435 was more than 100 µM throughout.
Take `O=C(Nc1cccc([N+](=O)[O-])c1)c1ccc2ccccc2c1O`: the GI50 in the experiment with OVCAR-5 ovarian is 20.6 µM; with SF-539 CNS it was 4.63 µM; in the experiment on HCT-15 colon, 9 µM; in the experiment on HCC-2998 colon, 5.01 µM; in the experiment on DU-145 prostate, 7.58 µM; with SK-MEL-28 melanoma it was 6.03 µM. Further, the GI50 in the experiment on U251 CNS is 4.36 µM; in the experiment with SF-295 CNS it was 3.47 µM; in the experiment on RPMI-8226 leukemia it was 1.28 µM; in the experiment with MDA-MB-435, 3.47 µM. The TGI in the experiment on OVCAR-5 ovarian is more than 100 µM; in the experiment on SF-539 CNS, more than 64.8 µM; in the experiment with HCT-15 colon it was more than 78.3 µM; with HCC-2998 colon it was more than 100 µM; in the experiment with DU-145 prostate it was more than 100 µM; in the experiment with SK-MEL-28 melanoma it was more than 100 µM. The TGI was more than 86.8 µM in the experiment on U251 CNS, more than 82.8 µM with SF-295 CNS, 5.99 µM in the experiment with RPMI-8226 leukemia and more than 100 µM in the experiment with MDA-MB-435.
For the compound `C/C=C(\CCC1NCCc2c1[nH]c1ccccc21)[Si](C)(C)C` (stereo unspecified), the GI50 in the experiment with OVCAR-5 ovarian was 6.34 µM and 2.42 µM; in the experiment on SF-539 CNS, 6.2 µM and 1.66 µM; in the experiment on HCC-2998 colon, 5.5 µM and 1.78 µM; in the experiment with SK-MEL-28 melanoma, 6.42 µM and 1.83 µM; with U251 CNS, 5.79 µM and 1.8 µM; with SF-295 CNS, 7.13 µM and 2.32 µM. For the same compound, in the experiment with RPMI-8226 leukemia, the GI50 is 19.8 µM and 2.36 µM. The TGI in the experiment on OVCAR-5 ovarian was 16.6 µM and 8.04 µM; with SF-539 CNS, 11.9 µM and 3.09 µM; in the experiment with HCT-15 colon it was 32.7 µM and 5.08 µM; in the experiment on HCC-2998 colon it was 9.91 µM and 3.3 µM; in the experiment with DU-145 prostate, 26.1 µM; in the experiment with SK-MEL-28 melanoma, 11.3 µM and 3.36 µM. Moreover, the TGI in the experiment on U251 CNS was 10.5 µM and 3.27 µM; with SF-295 CNS, 17.5 µM and 5.52 µM; with MDA-MB-435 it was 11.1 µM.
For `CNc1cccnc1/C=N/NC(N)=S`, the TGI in the experiment on OVCAR-5 ovarian is 9.78 µM; in the experiment with SF-539 CNS, 1.54 µM; with HCT-15 colon, more than 7.32 µM; with HCC-2998 colon, more than 10 µM; in the experiment on DU-145 prostate, 3.89 µM; in the experiment on SK-MEL-28 melanoma it was more than 10 µM. Besides, the TGI in the experiment on U251 CNS was more than 10 µM; in the experiment with SF-295 CNS it was 5.71 µM; with RPMI-8226 leukemia it was more than 10 µM; in the experiment with MDA-MB-435, more than 10 µM.
For the compound `Nc1nc(Cl)c(N=Nc2ccc(Cl)cc2)c(NCC2(CO)CC(OCc3ccccc3)C2)n1` (stereo unspecified), the GI50 in the experiment on OVCAR-5 ovarian is 13.4 µM and > 100 µM and 12 µM; in the experiment on SF-539 CNS, 13.7 µM and > 100 µM and 12.4 µM; in the experiment on DU-145 prostate, 6.16 µM and 14.6 µM and 4.62 µM; with SF-295 CNS it was 22.2 µM and 45 µM and 13.4 µM; in the experiment with RPMI-8226 leukemia, 7.56 µM and > 44.4 µM and 14.5 µM. Further, the TGI is > 100 µM and 30.2 µM in the experiment on OVCAR-5 ovarian; 43.7 µM and > 100 µM and 33.1 µM with SF-539 CNS; > 100 µM and 20.1 µM in the experiment on HCT-15 colon; 87.3 µM and > 100 µM and 16.9 µM with HCC-2998 colon; 92.2 µM and > 100 µM and 26.5 µM with DU-145 prostate; > 100 µM and 33.4 µM in the experiment with SK-MEL-28 melanoma. The TGI was 28.5 µM and > 100 µM and 36 µM in the experiment with U251 CNS; 99.5 µM and > 100 µM and 30.8 µM in the experiment with SF-295 CNS; more than 100 µM with RPMI-8226 leukemia; 14.2 µM and > 100 µM and 59.2 µM with MDA-MB-435.
Take `CO/N=C(\COc1ccc2c(c1)oc(=O)c1cc(OC)ccc12)c1cccc(OC)c1`: the GI50 in the experiment with OVCAR-5 ovarian, with SF-539 CNS, in the experiment on HCT-15 colon, in the experiment on HCC-2998 colon, with DU-145 prostate and in the experiment with SK-MEL-28 melanoma was more than 100 µM each time. In addition, the GI50 in the experiment on U251 CNS, in the experiment on SF-295 CNS, in the experiment with RPMI-8226 leukemia and with MDA-MB-435 was more than 100 µM each time. In addition, the TGI in the experiment on OVCAR-5 ovarian, with SF-539 CNS, in the experiment on HCT-15 colon, in the experiment on HCC-2998 colon, in the experiment with DU-145 prostate and with SK-MEL-28 melanoma was more than 100 µM throughout. Besides, the TGI with U251 CNS, in the experiment with SF-295 CNS, in the experiment with RPMI-8226 leukemia and in the experiment with MDA-MB-435 was more than 100 µM in each case.
Regarding `O=C1/C(=C/c2ccc([N+](=O)[O-])o2)Oc2ccccc21`, the GI50 with OVCAR-5 ovarian was 1.85 µM; with SF-539 CNS, 1.87 µM; with HCT-15 colon, 0.341 µM; in the experiment on HCC-2998 colon, 1.98 µM; with DU-145 prostate, 1.91 µM; in the experiment on SK-MEL-28 melanoma it was 1.65 µM. Also, the GI50 in the experiment on U251 CNS was 1.96 µM; in the experiment with SF-295 CNS, 3.43 µM; with RPMI-8226 leukemia it was 1.02 µM; in the experiment on MDA-MB-435, 1.79 µM. For the same compound, the TGI stood at 3.5 µM in the experiment on OVCAR-5 ovarian; 4.14 µM in the experiment on SF-539 CNS; 1.43 µM with HCT-15 colon; 3.94 µM in the experiment on HCC-2998 colon; 3.73 µM with DU-145 prostate; 3.2 µM with SK-MEL-28 melanoma. Besides, the TGI with U251 CNS came out at 4.66 µM; in the experiment with SF-295 CNS it was 13.8 µM; in the experiment with RPMI-8226 leukemia, 3.58 µM; with MDA-MB-435, 4.01 µM.
For the compound `NC(N)=N/N=C(/c1ccccc1)c1ccc(Cl)cc1`, the GI50 in the experiment with OVCAR-5 ovarian is 47.3 µM; with SF-539 CNS, 18.8 µM; in the experiment on HCT-15 colon, 5.8 µM; in the experiment on HCC-2998 colon it was 16.3 µM; with DU-145 prostate, 4.89 µM; in the experiment on SK-MEL-28 melanoma, 8.03 µM. Further, the GI50 was 9.4 µM with U251 CNS, 10.3 µM with SF-295 CNS, 1.53 µM with RPMI-8226 leukemia and 2.74 µM in the experiment with MDA-MB-435. The TGI in the experiment with OVCAR-5 ovarian was more than 100 µM; in the experiment with SF-539 CNS, 53.5 µM; with HCT-15 colon it was more than 100 µM; in the experiment with HCC-2998 colon, 47.5 µM; with DU-145 prostate, 24.8 µM; in the experiment on SK-MEL-28 melanoma, more than 100 µM. In addition, the TGI with U251 CNS is more than 100 µM; in the experiment with SF-295 CNS, more than 100 µM; in the experiment on RPMI-8226 leukemia, 26.6 µM; in the experiment with MDA-MB-435, 9.27 µM.
